{
  "source": "patent US20240423899A1",
  "about": "“LONGEVITY MOISTURIZING CREAM” (Wellbeam Consumer Health Intermediate, LLC, priority 2023, published 2024)",
  "origin": "cited, not measured here",
  "tested_on": "skin",
  "details": "topical application",
  "data": [
    {"compound": "C=C[C@@](C)(/C=C/c1ccc(O)cc1)CCC=C(C)C", "note": "[bakuchiol]", "values": [
      {"measurement": "irritating effect on the skin", "result": "no irritating effect"},
      {"measurement": "lines and wrinkles, pigmentation, elasticity, firmness, and overall reduction in photo-damage", "result": "significant improvement"}
    ]}
  ]
}
